Legend:
[1] = biological target: T1, Enterobacter cloacae lectin A (EclA) (Enterobacter cloacae, UniProt A0A0H3CQ33); assay: competitive fluorescence polarization; thermal shift (Tm […] to […] °C); assay type: binding; parameters: gene ECL_04191; full-length EclA and EclA-C (amino acids 140–283)
[2] = biological target: T1, Enterobacter cloacae lectin A (EclA); assay: competitive fluorescence polarization displacement of […]; assay type: binding; parameters: gene ECL_04191; full-length EclA and EclA-C (amino acids 140–283)
[3] = biological target: the molecule itself; assay: dynamic light scattering; Zetasizer Nano-ZS; 100 uM EclA-L or 200 uM EclA-N-tag and EclA-C in TBS/Ca (20 mM Tris, 137 mM NaCl, 2.6 mM KCl, pH 7.4, 1 mM CaCl2), 25 C; molecular weight estimated from the hydrodynamic radius

T1 sequence (A0A0H3CQ33 entry or part of it): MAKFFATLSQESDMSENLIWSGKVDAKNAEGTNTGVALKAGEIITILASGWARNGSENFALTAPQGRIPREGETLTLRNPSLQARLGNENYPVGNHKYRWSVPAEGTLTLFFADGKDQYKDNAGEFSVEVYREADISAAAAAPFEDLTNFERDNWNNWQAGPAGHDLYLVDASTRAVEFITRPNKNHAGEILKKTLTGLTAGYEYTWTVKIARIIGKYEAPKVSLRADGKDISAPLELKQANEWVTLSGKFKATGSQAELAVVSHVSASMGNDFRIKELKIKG

Q: For `C[C@@H]1OC(O)[C@@H](O)[C@H](O)[C@@H]1O` (stereo partly drawn) [compound 1, L-fucose], which IC50 [1] is on record?
A: Its IC50 is 4000 to 4700 µM.

Q: For `CO[C@@H]1O[C@@H](C)[C@@H](O)[C@@H](O)[C@@H]1O` [compound 12, methyl α-L-fucoside], which IC50 [2] is on record?
A: Its IC50 is 1300 to 1400 µM.

Q: With `CO[C@H]1O[C@@H](C)[C@@H](O)[C@@H](O)[C@@H]1O` [compound 13, methyl β-L-fucoside] as the molecule, how does the IC50 [2] read?
A: The IC50 was 1500 to 1800 µM.

B1: EclA-L (EclA-M14A), full-length Enterobacter cloacae lectin A with the second start codon mutated (natural protein)
chain: MAKFFATLSQESDASENLIWSGKVDAKNAEGTNTGVALKAGEIITILASGWARNGSENFALTAPQGRIPREGETLTLRNPSLQARLGNENYPVGNHKYRWSVPAEGTLTLFFADGKDQYKDNAGEFSVEVYREADISAAAAAPFEDLTNFERDNWNNWQAGPAGHDLYLVDASTRAVEFITRPNKNHAGEILKKTLTGLTAGYEYTWTVKIARIIGKYEAPKVSLRADGKDISAPLELKQANEWVTLSGKFKATGSQAELAVVSHVSASMGNDFRIKELKIKG
notes: EclA (Enterobacter cloacae lectin A), E. cloacae subsp. cloacae ATCC 13047, ECL_04191, 283 aa, with M14A; Tag-free, pET22b; Made to have one protein species only (second ATG at codon 14 removed); also called EclA-L (M14A); source: E. coli, expressed and purified as reported for EclA
Q: With B1 as the molecule, how does the “stoichiometry N” value [3] read?
A: The value was 2.

B2: EclA-C, native EclA C terminus (amino acids 140-283) (domain or fragment)
chain: MAAPFEDLTNFERDNWNNWQAGPAGHDLYLVDASTRAVEFITRPNKNHAGEILKKTLTGLTAGYEYTWTVKIARIIGKYEAPKVSLRADGKDISAPLELKQANEWVTLSGKFKATGSQAELAVVSHVSASMGNDFRIKELKIKG
notes: EclA, E. cloacae subsp. cloacae ATCC 13047, stated as amino acids 140-283 (144 aa); Tag-free; a selenomethionine-labelled form was also crystallised; also called C-terminal domain of EclA; source: E. coli BL21(DE3), purified (fucose-coupled sepharose, L-fucose elution)
Q: For B2, which “stoichiometry N” value [3] is on record?
A: Its value is 2.

B3: EclA-N-tag, N-terminally His6-tagged EclA N terminus (amino acids 2-140) (domain or fragment)
chain: AKFFATLSQESDASENLIWSGKVDAKNAEGTNTGVALKAGEIITILASGWARNGSENFALTAPQGRIPREGETLTLRNPSLQARLGNENYPVGNHKYRWSVPAEGTLTLFFADGKDQYKDNAGEFSVEVYREADISAAA
notes: EclA, E. cloacae subsp. cloacae ATCC 13047, residues 2-140, based on EclA-L (M14A); also called N-terminal domain of EclA; not shown: His6, N-terminal, kept
Q: With B3 as the molecule, how does the “stoichiometry N” value [3] read?
A: The value was 2.

— PMC11875179, “A fucose-binding superlectin from Enterobacter cloacae with high Lewis and ABO blood group antigen specificity” (The Journal of Biological Chemistry, 2024)
